Source: patent publication EP4772509A1, “KINESIN KIF18A INHIBITOR, AND APPLICATION THEREOF” (Shanghai Apeiron Therapeutics Company Limited, priority 2023, dated 2025)
Read-outs that look alike come from different tables or passages of the source.

Legend:
[1] = target: T1, Human KIF18A (amino acid sequence 1-417) (Homo sapiens, UniProt Q8NI77); assay: Enzymatic activity test (ADP-Glo, microtubule-stimulated ATPase); type: biochemical; details: 60 µg/mL microtubules, 25 µM ATP, 2.5 nM KIF18A protein, 120 min at ambient temperature, chemiluminescence
T1 construct: purchased Viva Biotech (Shanghai) Ltd
T1 sequence (Q8NI77 1-417): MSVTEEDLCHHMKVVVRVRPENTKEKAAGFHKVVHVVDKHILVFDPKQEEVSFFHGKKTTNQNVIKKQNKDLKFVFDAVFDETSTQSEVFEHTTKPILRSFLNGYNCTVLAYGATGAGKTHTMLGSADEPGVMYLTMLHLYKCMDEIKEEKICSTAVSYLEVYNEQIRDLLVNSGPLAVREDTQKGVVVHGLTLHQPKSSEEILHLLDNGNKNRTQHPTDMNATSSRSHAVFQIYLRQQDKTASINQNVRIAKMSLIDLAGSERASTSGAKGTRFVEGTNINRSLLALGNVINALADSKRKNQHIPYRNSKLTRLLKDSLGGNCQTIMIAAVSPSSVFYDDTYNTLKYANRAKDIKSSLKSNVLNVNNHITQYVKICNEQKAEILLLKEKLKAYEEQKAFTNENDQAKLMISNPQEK
Protocol: Materials: Human KIF18A (amino acid sequence 1-417) was purchased from Viva Biotech (Shanghai) Ltd.; the ADP-Glo™ protein kinase kit was acquired from Promega, USA; tubulin was sourced from Cytoskeleton, USA; and the 384-well assay plate and Envision multifunctional microplate reader were obtained from PerkinElmer, USA.
Enzymatic Activity Test: The compound powder was dissolved in DMSO to prepare a stock solution of 10 mM. Then gradient dilution was performed for the compounds in the microplate to achieve a final concentration of 0-10 µM. Then, 2.5 µL each of tubulin, compound, ATP, and KIF18A protein were added to the microplate in sequence for reaction at ambient temperature for 120 min. The final concentrations in the enzyme reaction were 60 µg/mL for microtubules, 25 µM for ATP, and 2.5 nM for KIF18A protein. After the enzyme reaction, 10 µL of ADP-GLO reaction reagent was added to each well and incubated at room temperature for 30 min. After that, 20 µL of detection reagent was added to each well and incubated at room temperature for 30 min in the dark. Finally, chemiluminescence detection was performed using the PerkinElmer Envision.

OVCAR3 cells = assay: Cell proliferation activity test (CyQUANT Direct); type: cell-based; details: 3 days, 0.2% DMSO, CyQUANT fluorescence
Protocol: Materials and Cells: OVCAR3 cells were purchased from Nanjing Cobioer Biosciences Co., Ltd. RPMI-1640 medium, fetal bovine serum, and the CyQUANT Direct Cell Proliferation Assay kit were purchased from Thermo Fisher Scientific, USA; 96-well cell culture plates were sourced from Corning, USA.
Cell Culture: OVCAR3 cells were cultured with RPMI-1640 medium containing 10% fetal bovine serum and incubated in a 5% CO2 incubator at 37°C. Only cells in the logarithmic growth phase could be used for the test.
OVCAR3 cells were inoculated into a 96-well cell culture plate at 90 µL per well and incubated overnight in a 5% CO2 incubator at 37°C. The compound powder was dissolved in DMSO to prepare a stock solution of 10 mM. Then gradient dilution was performed for the compounds in the microplate to achieve a final concentration of 0-10 µM. 10 µL of cell culture medium containing compounds was added to each well to make the final DMSO content 0.2%. The cell plates were incubated in a 5% CO2 incubator at 37°C for 3 days. 100 µL of CyQUANT detection reagent was added to each well, reacted at 37°C for 60 min, and fluorescence detection was performed using the PerkinElmer Envision.

HT29 cells = assay: CyQuant cell proliferation activity test; type: cell-based; details: HT29 at 2000 cells per well, 3 days, 0.2% DMSO, XLFIT
Protocol: Materials and Cells: HT29 cells were purchased from Nanjing Cobioer Biosciences Co., Ltd.; RPMI-1640 medium, fetal bovine serum, Trypsin-EDTA (0.25%), 96-well plates, and CyQuant reagents were purchased from ThermoFisher (USA); DMSO was purchased from SIGMA (USA).
Cell Culture: HT29 cells were cultured with RPMI-1640 containing 10% fetal bovine serum under the condition of 37°C and 5% CO2. Only cells in the logarithmic growth phase could be used for the test.
Cell Proliferation Activity Test: CyQuant reagent was used to detect the proliferation inhibitory activity of compounds on HT29 cells. The cell density was adjusted, and 100 µL per well was inoculated into a 96-well plate (HT29 at 2000 cells per well), then incubated overnight at 37°C and 5% CO2. Add compounds of various target concentrations (initial concentration of 3000 nM, 3-fold dilution, 9 concentration gradients), and make the DMSO content 0.2%. The cell plate was incubated at 37°C in 5% CO2 for 3 days. CyQuant reagent was added and incubated for 1 h. The plates were read by Envision, and IC50 was calculated using XLFIT.

Row | IC50 ([1]; read-out: KIF18A IC50) | IC50 (OVCAR3 cells) | Compound | IC50 (OVCAR3 cells; Homo sapiens, OVCAR-3, 72 h) | IC50 (HT29 cells; Homo sapiens, HT-29, 72 h) | IC50 (HT29 cells; read-out: HT-29 IC50) | IC50 ([1]; KIF18A IC50 nM)
1 | 3550 nM | 639 nM | Cc1cc2nc(n1)N1CCC(F)(F)C(C=CCC3CCN(CC3)c3cc(NS(=O)(=O)CCO)c4c(c3C(=O)N2)CCC4=O)C1 (single isomer, unassigned) [Example 2B, N-(1^4,1^4-difluoro-2^6-methyl-5^1,4-dioxo-5^2,5^3-dihydro-5^1H-3-aza-2(2,4)-pyrimidin-1(1,3),6(1,4)-dipiperidin-5(4,5)-indenoheterocyclonon-8-en-5^7-yl)-2-hydroxyethane-1-sulfonamide] |  |  | 639 nM | 
2 | 258 nM | 472 nM | Cc1cc2nc(n1)N1CCC(F)(F)C(/C=C\CC3CCN(CC3)c3cc(NS(=O)(=O)CCO)ccc3-c3cn-2nn3)C1 (single isomer, unassigned) [Example 84B, N-((3^4Z,7Z)-1^4,1^4-difluoro-2^6-methyl-3^1H-2(2,4)-pyrimidin-1(1,3),5(1,4)-dipiperidin-3(1,4)-triazole-4(1,2)-benzocyclooct-7-en-4^4-yl)-2-hydroxyethane-1-sulfonamide] |  |  |  | 
3 | 52 nM |  | Cc1cc2nc(n1)N1CCC(F)(F)C(C=CCC3=CC=C(S3)c3cc(NS(=O)(=O)CCO)ccc3C(=O)N2)C1 (stereo not drawn) [Example 57, N-(1^4,1^4-difluoro-2^6-methyl-4-oxo-3-aza-2(2,4)-pyrimidin-1(1,3)-piperidin-6(2,5)-thiophene-5(1,2)-benzoazacyclon-8-en-5^4-yl)-2-hydroxyethane-1-sulfonamide] | 119 nM | 22 nM |  | 
4 |  |  | Cc1cc2nc(n1)N1CCC(F)(F)C(/C=C\Cc3ccc(cc3)-c3cc(NS(=O)(=O)CCO)ccc3C(=O)N2)C1 (stereo not drawn) [Example 42, N-(1^4,1^4-difluoro-2^6-methyl-4-oxo-3-aza-2(2,4)-pyrimidin-1(1,3)-piperidin-5(1,2),6(1,4)-diphenylheterocyclonon-8-en-5^4-yl)-2-hydroxyethane-1-sulfonamide] | 136 nM | 162 nM |  | 167 nM
5 |  |  | Cc1cc2nc(n1)N1CCC(F)(F)C(CC=Cc3ccc(nc3)-c3cc(NS(=O)(=O)CCO)ccc3C(=O)N2)C1 (stereo not drawn) [Example 48, N-(1^4,1^4-difluoro-2^6-methyl-4-oxo-3-aza-2(2,4)-pyrimidin-6(2,5)-pyridin-1(1,3)-piperidin-5(1,2)-phenylheterocyclonon-7-en-5^4-yl)-2-hydroxyethane-1-sulfonamide] | 1210 nM | 1560 nM |  | 
6 | 309 nM | 26 nM | Cc1cc2nc(n1)N1CCC(F)(F)C(/C=C\CC3CCN(CC3)c3cc(NS(=O)(=O)CCO)ccc3-c3cn-2nn3)C1 (single isomer, unassigned) [Example 84A, N-((3^4Z,7Z)-1^4,1^4-difluoro-2^6-methyl-3^1H-2(2,4)-pyrimidin-1(1,3),5(1,4)-dipiperidin-3(1,4)-triazole-4(1,2)-benzocyclooct-7-en-4^4-yl)-2-hydroxyethane-1-sulfonamide] |  |  |  | 
7 |  |  | Cc1cc2nc(n1)N1CCC(F)(F)C(/C=C/CC3CCN(CC3)c3cc(NS(=O)(=O)CCO)c(C(=O)N(C)C)cc3-n3cc-2nn3)C1 (stereo not drawn) [Example 93, (3^4Z,7E)-1^4,1^4-difluoro-4^4-((2-hydroxyethyl)sulfonamido)-2^6-methyl-3^1H-2(2,4)-pyrimidin-1(1,3),5(1,4)-dipiperidin-3(4,1)-triazole-4(1,2)-benzocyclooct-7-en-4^5carboxamide] | 91 nM | 194 nM |  | 
8 | 186 nM | 38 nM | Cc1cc2nc(n1)C1CN(/C=C/CC3CCN(CC3)c3cc(NS(=O)(=O)CCO)ccc3-c3cn-2nn3)CCC1(F)F (single isomer, unassigned) [Example 84C, N-((3^4Z,7E)-1^4,1^4-difluoro-2^6-methyl-3^1H-2(2,4)-pyrimidin-1(1,3),5(1,4)-dipiperidin-3(1,4)-triazole-4(1,2)-benzocyclooct-7-en-4^4-yl)-2-hydroxyethane-1-sulfonamide] |  |  |  | 
9 | 284 nM | > 3000 nM | Cc1cc2nc(n1)C1CN(/C=C/CC3CCN(CC3)c3cc(NS(=O)(=O)CCO)ccc3-c3cn-2nn3)CCC1(F)F (single isomer, unassigned) [Example 84D, N-((3^4Z,7E)-1^4,1^4-difluoro-2^6-methyl-3^1H-2(2,4)-pyrimidin-1(1,3),5(1,4)-dipiperidin-3(1,4)-triazole-4(1,2)-benzocyclooct-7-en-4^4-yl)-2-hydroxyethane-1-sulfonamide] |  |  |  | 

Row | Compound | IC50 ([1]; read-out: KIF18A IC50) | IC50 (OVCAR3 cells) | IC50 (OVCAR3 cells; Homo sapiens, OVCAR-3, 72 h) | IC50 (HT29 cells; Homo sapiens, HT-29, 72 h) | IC50 (HT29 cells; read-out: HT-29 IC50) | IC50 ([1]; KIF18A IC50 nM)
10 | Cn1c2nc(cc1=O)NC(=O)c1c(cc(NS(=O)(=O)CCO)c3c1CCC3=O)N1CCC(C/C=C\C3CN2CCC3(F)F)CC1 (stereo not drawn) [Example 9, N-(11,11-difluoro-6-methyl-1,5,22-trioxo-1,5,6,9,10,11,12,15,16,17,18,22,23,24-tetradecahydro-2H-3,7-(azanediyl)-16, 19-ethano-8,12-methyleneindeno[4,5-i] [1,3,7,11]tetraazacyclohenicosan-21-yl)-2-hydroxyethane-1-sulfonamide] | 264 nM |  | 1060 nM | 1020 nM |  | 
11 | COc1cc2nc(n1)N1CCC(F)(F)C(/C=C\CC3CCN(CC3)c3cc(NS(=O)(=O)CCO)c4c(c3C(=O)N2)CCC4=O)C1 (stereo not drawn) [Example 5, N-(1^4,1^4-difluoro-2^6-methoxy-5^1,4-dioxo-5^2,5^3-dihydro-5^1H-3-aza-2(2,4)-pyrimidin-1(1,3),6(1,4)-dipiperidin-5(4,5)-indenoheterocyclononane-8-en-5^7-yl)-2-hydroxyethane-1-sulfonamide] | 162 nM |  | 42 nM | 42 nM |  | 
12 | Cc1cc2nc(n1)N1CCC(F)(F)C(/C=C\c3csc(c3)-c3cc(NS(=O)(=O)CCO)ccc3C(=O)N2)C1 (stereo not drawn) [Example 67, N-(2^4,2^4-difluoro-1^6-methyl-7-oxo-8-aza-1(2,4)-pyrimidin-2(1,3)-piperidin-5(2,4)-thiophene-6(1,2)-benzeneheterocyclooct-3-en-6^5-yl)-2-hydroxyethane-1-sulfonamide] | 86 nM |  | 481 nM |  |  | 
13 | Cc1cc2nc(n1)N1CCC(F)(F)C(CCCc3ccc(cc3)-c3cc(NS(=O)(=O)CCO)c(F)cc3C(=O)N2)C1 (stereo not drawn) [Example 53, 2-Hydroxy-N-(1^4,1^4,5^5-trifluoro-2^6-methyl-4-oxo-3-aza-2(2,4)-pyrimidin-1(1,3)-piperidin-5(1,2),6(1,4)-diphenylheterocyclononane-5^4-yl)ethane-1-sulfonamide] | 49 nM |  | 46 nM |  |  | 
14 | Cc1cc2nc(n1)N1CCC(F)(F)C(CCCc3ccc(cc3)-c3cc(NS(=O)(=O)CCO)ccc3C(=O)N2)C1 (single isomer, unassigned) [Example 46B, N-(1^4,1^4-difluoro-2^6-methyl-4-oxo-3-aza-2(2,4)-pyrimidin-1(1,3)-piperidin-5(1,2),6(1,4)-diphenylheterocyclononane-5^4-yl)-2-hydroxyethane-1-sulfonamide] | 57 nM |  |  |  | 36 nM | 
